Results on 2 compounds are retold here after patent US20180338918A1, “TEMSIROLIMUS LIPOSOME AND PREPARATION METHOD THEREOF” (JIANGSU TASLY DIYI PHARMACEUTICAL CO., LTD., priority 2017, published 2018).

For data set [1] the following is noted: background statement; cited from earlier work.
Data set [2] can be described thus: Solubility of temsirolimus in common oils for injection (medium chain oil, soybean oil). Type of data set: physicochemical. The note with it: for Dissolution state: 30 min. The text has this: Investigation of the solubility of temsirolimus in common oils for injection (medium chain oil, soybean oil)
A short description of data set [3]: Sulfobutyl ether-β-cyclodextrin inclusion of temsirolimus, appearance of the solution. The note with it: 1 mg/mL temsirolimus; application amount of sulfobutyl ether-β-cyclodextrin 50%. The data set is classed as physicochemical. On the procedure:
The druggabilities of sulfobutyl ether-β-cyclodextrin inclusion complex, liposome, and fat emulsion were investigated. The drug loading was fixed at 1 mg/ml for parallel comparisons. The main study protocol and results were summarized as follows:
Formula amount of sulfobutyl ether-β-cyclodextrin was weighed, and dissolved by adding quantum satis water for injection, and setting the volume thereof to 100 mL; formula amount of temsirolimus was weighed, added into the aqueous solution of sulfobutyl ether-β-cyclodextrin, and stirred them at room temperature for 2 h.
Formula amount of sulfobutyl ether-β-cyclodextrin was weighed, dissolved by adding quantum satis water for injection to give an aqueous phase; formula amounts of temsirolimus and organic vehicle (anhydrous ethanol, or propanediol, or PEG4000) were weighed, dissolved by water-bath ultrasound to give an organic phase; the organic phase was poured into the aqueous phase with stirring, and mixed uniformly, and setting the volume thereof to full volume with water for injection, and thus the formulations were obtained.

Another data set relates to mice. The note with it: injected via tail vein of mice, compared with Tween 80; cited from earlier work.

For the compound `CO[C@H]1C[C@@H]2CC[C@@H](C)[C@@](O)(O2)C(=O)C(=O)N2CCCC[C@H]2C(=O)O[C@H]([C@H](C)C[C@@H]2CC[C@@H](OC(=O)C(C)(CO)CO)[C@H](OC)C2)CC(=O)[C@H](C)/C=C(\C)[C@@H](O)[C@@H](OC)C(=O)[C@H](C)C[C@H](C)/C=C/C=C/C=C/1C` [temsirolimus, 42-bis(hydroxymethyl) propionate of sirolimus], the Solubility in water entry in data set [1] is “almost insoluble in water”. The Dissolution state result in data set [2] (Medium chain oil, 10 mg/g, 60° C.) is recorded as “Severe”; in data set [2] (Medium chain oil, 10 mg/g, 70° C.), “Severe”; in data set [2] (Medium chain oil, 10 mg/g, 80° C.), “Severe”; in data set [2] (Medium chain oil, 20 mg/g, 60° C.), “Severe”; in data set [2] (Medium chain oil, 20 mg/g, 70° C.), “Severe”; in data set [2] (Medium chain oil, 20 mg/g, 80° C.) it was “Severe”. Besides, the Dissolution state result in data set [2] (Medium chain oil, 30 mg/g, 60° C.) is on record as “Severe”; in data set [2] (Medium chain oil, 30 mg/g, 70° C.) it was “Severe”; in data set [2] (Medium chain oil, 30 mg/g, 80° C.), “Severe”; in data set [2] (Medium chain oil, 40 mg/g, 60° C.), “Severe”; in data set [2] (Medium chain oil, 40 mg/g, 70° C.) it was “Severe”; in data set [2] (Medium chain oil, 40 mg/g, 80° C.) it was “Severe”. For the same compound, the Dissolution state entry was “Severe” in data set [2] (Soybean oil, 10 mg/g, 60° C.); “Severe” in data set [2] (Soybean oil, 10 mg/g, 70° C.); “Severe” in data set [2] (Soybean oil, 10 mg/g, 80° C.). Further, in data set [2] (summary in words), the “Solubilities in the medium chain oil and soybean oil” value is recorded as “poor”. The “Inclusion of temsirolimus by sulfobutyl ether-β-cyclodextrin” value in data set [3] is recorded as “cannot be included”.
Regarding polyethylene glycol stearate 15, the Acute toxicity result in the data set on mice is on record as “great, even greater than that of Tween 80”.
